Results published in PMC9138683, “Decoding the Role of Melatonin Structure on Plasmodium falciparum Human Malaria Parasites Synchronization Using 2-Sulfenylindoles Derivatives” (Biomolecules, 2022).
Entries after “also recorded” stand apart in the source; their conditions may differ.

Assays:
[1] = test system: P. falciparum 3D7 parasites; test: Effects of indole derivatives (500 nM) on parasitemia; type: cell-based, Plasmodium falciparum; settings: for Parasitemia (%), melatonin alone: normalized to DMSO control (100.6%), compound-alone experiment
Experimental: (§1) To evaluate the role of the compounds in parasitemia, 1% 3D7 parasites in 2% hematocrit were incubated for 48 h with 500 nM of the 2-sulfenylindole derivatives. Melatonin (100 nM) was used as a positive control, and DMSO (0.0013% v/v) was used as a negative control. The concentration of DMSO chosen as control was the concentration present in the tested compounds at 500 nM. The activity of the compounds was measured by SG-I and MT-Red staining. The data obtained were normalized to those of the control (DMSO). Additionally, to test the ability of the compounds to affect melatonin activity in parasitemia, 3D7 parasites were incubated with 500 nM indole compounds along with 100 nM melatonin for 48 h.
After incubation, the final parasitemia was determined using flow cytometry.

[2] = test system: P. falciparum 3D7 parasites; test: Effect of 2-sulfenylindoles in combination with 100 nM melatonin on parasitemia; type: cell-based, Plasmodium falciparum; settings: 3D7, 48 h; for Parasitemia (%), melatonin alone: 100 nM melatonin only, normalized to DMSO control (100.7%), combination experiment
Experimental: as §1
Following the assumption that compounds resembling melatonin structure might interact through the melatonin signaling pathways, we evaluated the effect of the compounds on melatonin action on parasitemia. Our next step was to study the combination of 2-sulfenylindoles with melatonin in asynchronous 3D7 by incubating parasites simultaneously with 100 nM melatonin and 500 nM of each compound.

[3] = test system: CDPKs, PKG, and its accessory genes; test: Real-time PCR of CDPKs, PKG and accessory genes after melatonin treatment; type: cell-based, Plasmodium falciparum
Experimental: P. falciparum trophozoites (approximately 30–34 h post invasion) were treated with 100 nM and 1 µM melatonin (SIGMA-Aldrich, Burlington, MA, USA). RNA was extracted with Trizol (Life Technologies, Carlsbad, CA, USA) 1 and 3 h post treatment. cDNA synthesis was carried out using random primers and Superscript IV reverse transcriptase (Life Technologies) according to the manufacturer’s protocol. Oligonucleotides used are listed in Supplementary Table S1. SYBR Green incorporation was measured during PCR amplification performed on the 7300 Real-Time PCR System (Applied Biosystems, Foster City, CA, USA). The statistical analysis was performed by applying Student’s t-test on the log2 values of relative expression (delta delta Ct method) of the genes (normalized with the seryl t-RNA synthase housekeeping gene).
Previous studies have shown that melatonin alters the expression of the ubiquitin/proteasome system, mitochondrial FIS1, DYN2 [27], and nuclear PfMORC [28]. These findings lead us to investigate the effect of melatonin on kinases, phosphodiesterase, and cyclase for two reasons; first, kinases and their components are required for rupturing the parasites to facilitate egress in both asexual and sexual stages. […] We treated the late-stage trophozoite with two different melatonin concentrations (100 nM and 1 µM) for two time points (1 and 3 h). […] It is possible that melatonin may act upstream of PKG and modulates cytosolic calcium, but this hypothesis requires more experimental validation.
Figure 6 Differential transcription of CDPKs, PKG, and its accessory genes from parasites treated with melatonin for 1 and 3 h. Sorbitol synchronized parasites were treated with melatonin, and RNA samples were extracted, purified, and transcript level was investigated by RT-qPCR. Expression of genes has been normalized by housekeeping seryl-tRNA Synthetase expression for (A) 100 nM melatonin for 1 h; (B) 100 nM melatonin for 3 h; (C) 1 μM melatonin for 1 h; and (D) 1 μM melatonin for 3 h. […]

[4] = test system: Plasmodium falciparum 3D7 (chloroquine-sensitive); test: In vitro drug susceptibility assay, 3D7 strain (flow cytometry, SYBR Green I / MitoTracker Deep Red); type: cell-based; settings: Plasmodium falciparum, 3D7, 72 h, asynchronous parasites, 72 h, 0.1-100 µM; read-out: IC50 ± SD Pf3D7
Experimental: The cultures were maintained under an atmosphere of 5% CO2, 5% O2, and 90% N2. Fresh complete medium was provided daily, and rapid-stained (Panotico) blood smears were examined.
To evaluate the effects of synthetic compounds on the intraerythrocytic development of P. falciparum, we analyzed parasitemia by flow cytometry with 0.3% initial parasitemia and 1% hematocrit in the assay. Plates were incubated with the compounds at concentrations ranging from 0.10 to 100 µM for 72 h. Dual staining with SYBR Green I (SG-I) (Invitrogen, Waltham, MA, USA) and MitoTracker Deep Red (MT-Red) (Invitrogen) were used to label nucleic acids and mitochondria, respectively. Approximately 10,000 cells were counted by an Accuri C6 (Becton Dickinson, San Jose, CA, USA) and analyzed by FlowJo 5 software. Parasitemia was determined from the analysis of dot plots (side scatter versus fluorescence).
We determined the susceptibility of P. falciparum to the indole compounds and investigated whether CQR parasites responded differently to the compounds. […] We determined the IC50 values for each compound by analyzing viable and non-viable parasites after compound treatment, represented in dot plots (Figure 1H).

Cytotoxicity assay (MTT) = type: cell-based, human; settings: human, HEK293T (HEK293) cells, 0.10-100 µM, read-out: CC50 ± SD HEK293
Experimental: (§2) HEK293T (human embryonic kidney) cells were cultured in 75 cm^2 vented tissue culture flasks (Greiner Bio-One, Frickenhausen, Germany) at 37 °C in a humidified atmosphere containing 5% CO2 in Dulbecco’s modified […] (Gibco) supplemented with 10% (v/v) fetal bovine serum (Gibco), 100 U/mL penicillin, and 100 μg/mL streptomycin (Sigma). Cytotoxicity was evaluated with the 4,5-dimethylthiazol-2-yl-2,5-diphenyltetrazolium bromide (MTT) cell proliferation assay. Briefly, 10^4 cells/well were seeded in flat-bottom 96-well plates in complete DMEM medium for 24 h, followed by incubation with different concentrations of each compound (0.10–100 µM) for 72 h. DMSO (0.13%) and digitonin were used as the negative and positive controls, respectively. The concentrations of DMSO chosen as control were the concentration present in the tested compounds (from 0.0001% to 0.12%, two-fold dilution). After 72 h, cells were then incubated with the MTT reagent for 3 h, and absorbance was measured at 570 nm using a FlexStation® 3 Multi-Mode Microplate Reader (Molecular Devices, Sunnyvale, CA, USA). Moreover, we calculated the selectivity indexes (SI) to understand whether the compounds were more toxic to parasites than cells, or vice versa, according to the ratio of the CC50 value to the IC50 value for each compound.
(§3) We further assessed the toxicity of 2-sulfenylindole compounds against HEK293 cells using the MTT assay with different concentrations of the compounds for 72 h. Table 1 presents all the toxicity data and summarizes the IC50 values of the compounds evaluated in this study for Dd2 and 3D7 strains.

HEK293 cell line = test: Cytotoxicity assay (MTT); type: cell-based, human; settings: 72 h
Experimental: as §2, §3

P. falciparum 3D7 strain = test: Blood-stage development evaluation by microscopy; type: cell-based, Plasmodium falciparum
Experimental: Ring-stage parasites (10–14 h) at 1% parasitemia in 2% hematocrit were treated with compound 20 and compound 28 at concentrations of 1 and 30 µM in 24-well plates for 48 h. Treatment with chloroquine (20 nM) and DMSO (0.1%) was used as positive and negative controls. Smears were rapid stained (Panotico) every 12 h after treatment (12, 24, 36, 48, and 60 h time points), and we took images of parasites to assess the blood-stage development (Zeiss, Oberkochen, Germany).
During monitoring, parasites continued to develop throughout the cycle in the presence of both compounds. […] To examine its stage specificity, we monitored development every 12 h.
Figure 5 Parasitemia reduction with compound 20 (A) and compound 28 (B) to determine the stage activity. Data are means ± SD. Ring-stage synchronized parasites with sorbitol 5% were treated with chloroquine (20 nM), compound 20 (30 µM), and compound 28 (30 µM). The chosen treatment concentration was the IC50 values obtained for these compounds against the 3D7 parasites. (C) After drug administration, smears of P. falciparum 3D7 strain were taken at 0, 12, 24, 36, 48, and 60 h after drug administration, observing the growth development of treated parasites. * p ≤ 0.05, ** p ≤ 0.01, *** p ≤ 0.001.

| Structure (SMILES) | rise in parasitemia ([1]; 100 nM melatonin, 3D7, 48 h, from 100.6% (control)) | Parasitemia (%), melatonin alone ([1]; 100 nM melatonin, 3D7, 48 h) | Parasitemia (%), melatonin alone ([1]; 100 nM melatonin, 3D7, 48 h, listed as melatonin) | Parasitemia (%), melatonin alone [2] | Parasitemia (%), melatonin alone ([2]; listed as melatonin) | change in gene expression ([3]; 100 nM melatonin for 1 h, late-stage trophozoite, CDPK1 and GCα) | change in gene expression ([3]; 100 nM melatonin, after 3 h, additional CDPK6, CDPK7, PKG, PDEα, and GCβ) | change in gene expression ([3]; 1 µM melatonin for 3 h, cGMP-dependent signaling component) | IC50 [4] | CC50 at 72 h (Cytotoxicity assay (MTT)) | cytotoxic effect against HEK293 cells (in words) (HEK293 cell line) | effect on parasitemia (in words) ([1]; 500 nM compound alone, 3D7 asynchronous, 48 h) | increase in parasitemia ([1]; 500 nM compound, 3D7, 48 h, compared to DMSO control (100.6%)) | activity at 0.5 µM ([1]; Plasmodium falciparum, 3D7, 48 h, normalized to DMSO control, read-out: Parasitemia (%) Treatment with compound (500nM)) | Parasitemia (%) Treatment with compound (500nM) + Melatonin (100nM) ([2]; normalized to DMSO control) | effect on parasitemia during blood-stage progression (P. falciparum 3D7 strain; 3D7, ring-stage synchronized, 30 µM (IC50), Figure 5A,B) | stage-specific effect on blood-stage development (P. falciparum 3D7 strain; ring-stage synchronized 3D7, treated at IC50 (30 µM for 20 and 28), monitored every 12 h) |
| --- | --- | --- | --- | --- | --- | --- | --- | --- | --- | --- | --- | --- | --- | --- | --- | --- | --- |
| COc1ccc2[nH]cc(CCNC(C)=O)c2c1 [Melatonin] | 6.9% | 107.5 ± 4.32% | 107.5% | 113.5 ± 2.75% | 113.5% | very minor effect | increased expression | most prominent effect |  |  |  |  |  |  |  |  |  |
| COC(=O)Cc1c(SCCCCCCCCCCC(=O)O)[nH]c2ccccc12 [Compound 20] |  |  |  |  |  |  |  |  | 28.8 ± 4.86 µM | > 100 µM | low cytotoxic effect | led to an increase in parasitemia; also recorded: significantly increase the parasitemia | 9.1% | 110 ± 4.07% | 122.3 ± 3.71% | significantly affect parasitemia | affects RBC reinvasion |
